We go through one compound from patent US20220281930A1, “COMPOSITIONS AND METHODS FOR THE TREATMENT OF PATHOLOGICAL PAIN AND ITCH” (DUKE UNIVERSITY, priority 2019, published 2022).

The test system of one experiment is δ-cat S259. As to the kind of experiment: Phosphoproteomics in rat primary cortical neurons, δ-cat. It is filed as cell-based. The following applies: 1 μM KP; after 1 h, sustained at 24 h. As to the method: Cultured rat primary cortical neurons were treated with either vehicle DMSO (0.1%) or 1 μM KP for 1 h/24 h. Cells were lysed in non-detergent-containing buffer (Tris.Cl pH8 50 mM, NaCl 150 mM, 0.5% Phosphatase Inhibitor (Pierce #88667) and Protease Inhibitor (Roche #11836153001)). 500 μL was removed and solid urea was added to a final concentration of 8M. Samples were sonicated for further solubilization. After clearing of insoluble material by centrifugation, protein concentration was measured by Bradford assay. 250 μg of total protein was removed from each sample and solubilization buffer was added to normalize all samples to 0.93 μg/μL protein. Samples were then spiked with bovine alpha-casein to 30 fmol/μg of total protein. Samples were reduced with 10 mM DTT at 32° C. for 45 min and then alkylated with 20 mM iodoacetamide at room temperature for 30 min. […]
TiO2 Enrichment. […] After cleanup using a C18 STAGE tip, and resuspension in 2% acetonitrile, 0.1% TFA, 10 mM citric acid samples were quantified.
Quantitative analysis of Phosphopeptide Enriched Samples. Quantitative LC-MS/MS was performed in singlicate (4 uL=33% of the total sample each injection) for phosphopeptide-enriched samples using a nanoAcquity UPLC system (Waters Corp) coupled to a Thermo QExactive Plus high resolution accurate mass tandem mass spectrometer (Thermo) via a nanoelectrospray ionization source. […]

In experiment [1] the test system is DNFB chronic contact dermatitis model. Kind of experiment: DNFB chronic contact dermatitis scratching behavior. The format is in vivo, mouse. The settings on record: daily i.p. 30 mg/kg. As to the method: To assess scratching behavior as a behavioral correlate of itch, mice were shaved at the dorsal neck where topical application of 0.5% DNFB was applied (day 1). […] On day 12, mice were allowed to acclimate to a Plexiglas chamber for at least 30 mins before performing itch behavior test. Scratching behavior was recorded by a Panasonic video camera for a 30-min observation period. Hind limb scratching behavior directed toward the shaved area at the nape of neck was observed. One scratch is defined as a lifting of the hind limb toward the injection site and then a replacing of the limb back to the floor, regardless of how many scratching strokes take place between those two movements. Behavioral analysis was conducted by observers blinded to treatment procedure. DNFB-induced scratching behavior was recorded on day 12 for 1 h. […] Based on these findings, KP's anti-pruritic effects were assessed because inhibitory transmission in the SCDH plays an important role in chronic pruritus (Akiyama et al., 2015, Pain 156:1240-1246.; Bourane et al., 2015, Science 350:550-554; Braz et al., 2017, Prog Brain Res 231:87-105; Braz et al., 2014, J Clin Invest 124:3612-3616; Koch et al., 2018, Annual review of physiology 80:189-217; Mishra and Hoon, 2015, Handbook of experimental pharmacology 226:151-162).

As for `O=C1Cc2c([nH]c3ccc(Br)cc23)-c2ccccc2N1` [kenpaullone, 9-bromo-7,12-dihydro-indolo [3,2-d] [1]benzazepin-6(5H)-one], in the experiment with δ-cat S259, the “S259 phosphorylation of δ-cat” value is reported as “significant de-phosphorylation”. For the same compound, the “scratching behavior of sensitized sites” value in experiment [1] is “significantly reduced robust scratching behavior”.
